Results: patent US9439432B2, “Phenylisoxazoline-based compound having herbicidal activity and use thereof” (MOGHU RESEARCH CENTER LTD, priority 2011, dated 2016)

Assays:
Type in all cases: in vivo
Poa annua [1] = assay: Pre-emergence treatment, herbicidal efficacy on annual bluegrass; conditions: 4 weeks after spraying, scale 0 to 10
Procedure, shortened: (§1)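 Test materials are dissolved in acetone and mixed with an equal amount of 0.2% (v/v) Tween 20 solution. This solution is sprayed pre-emergence at 500, 250, 125 or 62.5 g/ha onto freshly seeded, irrigated soil one day after watering. Effects are rated 0–10 four weeks later.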

Soybean [2] = assay: Pre-emergence treatment, phytotoxicity to soybean; conditions: 500 g/ha, 4 weeks after spraying, scale 0 to 10 (0: no effects, 10: complete death)
Procedure, shortened: as §1

Wheat [3] = assay: Post-emergence treatment, phytotoxicity to wheat; conditions: post-emergence (about 3 leaf stage), 1,000 g/ha, 4 weeks after spraying, scale 0 to 10 (0: no effects, 10: complete death)
Procedure, shortened: (§2)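 Seed weeds and crops into 1:1 sandy loam/mixed bed soil; grow about two weeks to roughly 3 leaves; track-spray 125–1,000 g/ha at 300 L/ha from acetone/0.2% Tween 20; hold in greenhouse (25–30 °C day, 15–25 °C night); rate efficacy and crop injury 0–10 after four weeks.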

Rice [4] = assay: Post-emergence treatment, phytotoxicity to rice; conditions: post-emergence (about 3 leaf stage), 1,000 g/ha, 4 weeks after spraying, scale 0 to 10 (0: no effects, 10: complete death)
Procedure, shortened: as §2

Digitaria sanguinalis [5] = assay: Post-emergence treatment, herbicidal efficacy on large crabgrass; conditions: 4 weeks after spraying, scale 0 to 10
Procedure, shortened: as §2

Echinochloa crusgalli [6] = assay: Post-emergence treatment, herbicidal efficacy on barnyardgrass; conditions: 4 weeks after spraying, scale 0 to 10
Procedure, shortened: as §2

Echinochloa crusgalli [7] = assay: Pre-emergence treatment, herbicidal efficacy on barnyardgrass; conditions: 4 weeks after spraying
Procedure, shortened: as §1

Soybean [8] = assay: Post-emergence treatment, phytotoxicity to soybean; conditions: post-emergence (about 3 leaf stage), 1,000 g/ha, 4 weeks after spraying, scale 0 to 10 (0: no effects, 10: complete death)
Procedure, shortened: as §2

Cotton [9] = assay: Post-emergence treatment, phytotoxicity to cotton; conditions: post-emergence (about 3 leaf stage), 1,000 g/ha, 4 weeks after spraying, scale 0 to 10 (0: no effects, 10: complete death)
Procedure, shortened: as §2

Alopecurus myosuroides [10] = assay: Post-emergence treatment, herbicidal efficacy on blackgrass; conditions: 4 weeks after spraying, scale 0 to 10
Procedure, shortened: as §2

[11] = system: grass weeds including barnyardrass, large crabgrass, and annual bluegrass; assay: Pre-emergence treatment, grass weeds overall; conditions: relative to reference compounds
Method: (§3) A rectangular plastic pot having a surface area of 300 cm^2 was filled with sandy loam soil and mixed bed soil which were mixed at a ratio of 1:1, and then, barnyardrass (Echinochloa crusgalli), large crabgrass (Digitaria sanguinalis), blackgrass (Alopecurus myosuroides), and annual bluegrass (Poa annua), which are grass weeds, were seeded thereto. In a pot that was prepared as described above, seeds of corn, soybean, cotton, wheat, and rice were seeded. The pots were irrigated, and one day after, chemicals were sprayed thereto. The spraying was performed by using a track sprayer (R&D Sprayer, USA) equipped with a Teejet 8002 (Spraying Systems Co., USA) nozzle, and a spraying amount was adjusted at 300 L/ha. A spraying solution was prepared by dissolving test materials or references in acetone and adding the same amount of 0.2%(v/v) tween 20 aqueous solution thereto. Application rates were 500, 250, 125, and 62.5 g/ha. The pots were placed in a greenhouse in which during day, the temperature was maintained at a temperature of 25 to 30° C., and during night, the temperature was maintained at a temperature of 15 to 25° C., and the pots were periodically irrigated. Four weeks after the spraying the test materials or References, effects and phytotoxicity of the respective weeds and crops were evaluated in a scale of 0 to 10 (0: no effects, 10: complete death), and results thereof are shown in Table 4 below.

Digitaria sanguinalis [12] = assay: Pre-emergence treatment, herbicidal efficacy on large crabgrass; conditions: 4 weeks after spraying, scale 0 to 10
Procedure, shortened: as §1

Corn [13] = assay: Post-emergence treatment, phytotoxicity to corn; conditions: post-emergence (about 3 leaf stage), 1,000 g/ha, 4 weeks after spraying, scale 0 to 10 (0: no effects, 10: complete death)
Procedure, shortened: as §2

Corn [14] = assay: Pre-emergence treatment, phytotoxicity to corn; conditions: 500 g/ha, 4 weeks after spraying, scale 0 to 10 (0: no effects, 10: complete death)
Procedure, shortened: as §1

Alopecurus myosuroides [15] = assay: Pre-emergence treatment, herbicidal efficacy on blackgrass; conditions: 4 weeks after spraying, scale 0 to 10
Procedure, shortened: as §1

Poa annua [16] = assay: Post-emergence treatment, herbicidal efficacy on annual bluegrass; conditions: 4 weeks after spraying, scale 0 to 10
Procedure, shortened: as §2

Cotton [17] = assay: Pre-emergence treatment, phytotoxicity to cotton; conditions: 500 g/ha, 4 weeks after spraying, scale 0 to 10 (0: no effects, 10: complete death)
Procedure, shortened: as §1

Rice [18] = assay: Pre-emergence treatment, phytotoxicity to rice; conditions: 500 g/ha, 4 weeks after spraying, scale 0 to 10 (0: no effects, 10: complete death)
Procedure, shortened: as §1

Wheat [19] = assay: Pre-emergence treatment, phytotoxicity to wheat; conditions: 500 g/ha, 4 weeks after spraying, scale 0 to 10 (0: no effects, 10: complete death)
Procedure, shortened: as §1

[20] = system: barnyardgrass, large crabgrass, and annual bluegrass; assay: Post-emergence treatment, grass weeds overall; conditions: 250 g/ha
Method: as §3
Pots containing crops and weeds were prepared in the same manner as in Example 7, and then, in the second week in which crops and weeds entered into about 3 leaf stage, the test materials and the references were sprayed thereto in the same manner as described above. The rates were 1,000, 500, 250, and 125 g/ha. Four weeks after the spraying of the test materials or the references, herbicidal efficacy and phytotoxicity to the respective weeds and crops were evaluated in a scale of 0 to 10 (0: no effects, 10: complete death).

[21] = 500 g/ha, scale 0 to 10 (0: no effects, 10: complete death)

## CC1(COCc2c(F)cccc2F)CC(c2ccccc2Cl)=NO1 (stereo not drawn) [Compound 2, 3-(2-chlorophenyl)-5-((2,6-difluorobenzyloxy)methyl)-5-methyl-4,5-dihydroisoxazole]
Poa annua [1]; 62.5 g/ha
  Herbicidal efficacy, Poa annua: 8
Poa annua [1]; 125 g/ha
  Herbicidal efficacy, Poa annua: 9
Poa annua [1]; 250 g/ha
  Herbicidal efficacy, Poa annua: 10
Poa annua [1]; 500 g/ha
  Herbicidal efficacy, Poa annua: 10
Soybean [2]
  Phytotoxicity, Soybean: 0
Wheat [3]
  Phytotoxicity, Wheat: 1
Rice [4]
  Phytotoxicity, Rice: 1
Digitaria sanguinalis [5]; post-emergence, 125 g/ha
  Herbicidal efficacy, Digitaria sanguinalis: 5
Digitaria sanguinalis [5]; post-emergence, 250 g/ha
  Herbicidal efficacy, Digitaria sanguinalis: 5
Digitaria sanguinalis [5]; post-emergence, 500 g/ha
  Herbicidal efficacy, Digitaria sanguinalis: 6
Digitaria sanguinalis [5]; post-emergence, 1,000 g/ha
  Herbicidal efficacy, Digitaria sanguinalis: 10
Echinochloa crusgalli [6]; post-emergence, 125 g/ha
  Herbicidal efficacy, Echinochloa crusgalli: 0
Echinochloa crusgalli [6]; post-emergence, 250 g/ha
  Herbicidal efficacy, Echinochloa crusgalli: 5
Echinochloa crusgalli [6]; post-emergence, 500 g/ha
  Herbicidal efficacy, Echinochloa crusgalli: 8
Echinochloa crusgalli [6]; post-emergence, 1,000 g/ha
  Herbicidal efficacy, Echinochloa crusgalli: 10
Echinochloa crusgalli [7]; 62.5 g/ha, scale 0 to 10
  Herbicidal efficacy, Echinochloa crusgalli: 9
Echinochloa crusgalli [7]; 125 g/ha, scale 0 to 10
  Herbicidal efficacy, Echinochloa crusgalli: 10
Echinochloa crusgalli [7]; 250 g/ha, scale 0 to 10
  Herbicidal efficacy, Echinochloa crusgalli: 10
Echinochloa crusgalli [7]; [21]
  Herbicidal efficacy, Echinochloa crusgalli: 10
Soybean [8]
  Phytotoxicity, Soybean: 1
Cotton [9]
  Phytotoxicity, Cotton: 1
Alopecurus myosuroides [10]; post-emergence, 125 g/ha
  Herbicidal efficacy, Alopecurus myosuroides: 1
Alopecurus myosuroides [10]; post-emergence, 250 g/ha
  Herbicidal efficacy, Alopecurus myosuroides: 5
Alopecurus myosuroides [10]; post-emergence, 500 g/ha
  Herbicidal efficacy, Alopecurus myosuroides: 7
Alopecurus myosuroides [10]; post-emergence, 1,000 g/ha
  Herbicidal efficacy, Alopecurus myosuroides: 9
[11]
  efficacy stronger than the References: about 4 times
Digitaria sanguinalis [12]; 62.5 g/ha
  Herbicidal efficacy, Digitaria sanguinalis: 9
Digitaria sanguinalis [12]; 125 g/ha
  Herbicidal efficacy, Digitaria sanguinalis: 10
Digitaria sanguinalis [12]; 250 g/ha
  Herbicidal efficacy, Digitaria sanguinalis: 10
Digitaria sanguinalis [12]; 500 g/ha
  Herbicidal efficacy, Digitaria sanguinalis: 10
Corn [13]
  Phytotoxicity, Corn: 2
Corn [14]
  Phytotoxicity, Corn: 0
Alopecurus myosuroides [15]; 62.5 g/ha
  Herbicidal efficacy, Alopecurus myosuroides: 2
Alopecurus myosuroides [15]; 125 g/ha
  Herbicidal efficacy, Alopecurus myosuroides: 3
Alopecurus myosuroides [15]; 250 g/ha
  Herbicidal efficacy, Alopecurus myosuroides: 6
Alopecurus myosuroides [15]; 500 g/ha
  Herbicidal efficacy, Alopecurus myosuroides: 10
Poa annua [16]; post-emergence, 125 g/ha
  Herbicidal efficacy, Poa annua: 5
Poa annua [16]; post-emergence, 250 g/ha
  Herbicidal efficacy, Poa annua: 8
Poa annua [16]; post-emergence, 500 g/ha
  Herbicidal efficacy, Poa annua: 8
Poa annua [16]; post-emergence, 1,000 g/ha
  Herbicidal efficacy, Poa annua: 10
Cotton [17]
  Phytotoxicity, Cotton: 0
Rice [18]
  Phytotoxicity, Rice: 0
Wheat [19]
  Phytotoxicity, Wheat: 0

## CC1(COCc2c(F)cccc2F)CC(c2ccccc2C(F)(F)F)=NO1 (stereo not drawn) [Compound 5, 5-((2,6-difluorobenzyloxy)methyl)-5-methyl-3-(2-(trifluoromethyl)phenyl)-4,5-dihydroisoxazole]
Poa annua [1]; 62.5 g/ha
  Herbicidal efficacy, Poa annua: 9
Poa annua [1]; 125 g/ha
  Herbicidal efficacy, Poa annua: 9
Poa annua [1]; 250 g/ha
  Herbicidal efficacy, Poa annua: 9
Poa annua [1]; 500 g/ha
  Herbicidal efficacy, Poa annua: 10
Soybean [2]
  Phytotoxicity, Soybean: 2
[20]
  suppression of barnyardgrass, large crabgrass, and annual bluegrass: greatly suppressed
Wheat [3]
  Phytotoxicity, Wheat: 0
Rice [4]
  Phytotoxicity, Rice: 0
Digitaria sanguinalis [5]; post-emergence, 125 g/ha
  Herbicidal efficacy, Digitaria sanguinalis: 6
Digitaria sanguinalis [5]; post-emergence, 250 g/ha
  Herbicidal efficacy, Digitaria sanguinalis: 8
Digitaria sanguinalis [5]; post-emergence, 500 g/ha
  Herbicidal efficacy, Digitaria sanguinalis: 10
Digitaria sanguinalis [5]; post-emergence, 1,000 g/ha
  Herbicidal efficacy, Digitaria sanguinalis: 10
Echinochloa crusgalli [6]; post-emergence, 125 g/ha
  Herbicidal efficacy, Echinochloa crusgalli: 6
Echinochloa crusgalli [6]; post-emergence, 250 g/ha
  Herbicidal efficacy, Echinochloa crusgalli: 8
Echinochloa crusgalli [6]; post-emergence, 500 g/ha
  Herbicidal efficacy, Echinochloa crusgalli: 10
Echinochloa crusgalli [6]; post-emergence, 1,000 g/ha
  Herbicidal efficacy, Echinochloa crusgalli: 10
Echinochloa crusgalli [7]; 62.5 g/ha, scale 0 to 10
  Herbicidal efficacy, Echinochloa crusgalli: 10
Echinochloa crusgalli [7]; 125 g/ha, scale 0 to 10
  Herbicidal efficacy, Echinochloa crusgalli: 10
Echinochloa crusgalli [7]; 250 g/ha, scale 0 to 10
  Herbicidal efficacy, Echinochloa crusgalli: 10
Echinochloa crusgalli [7]; [21]
  Herbicidal efficacy, Echinochloa crusgalli: 10
Soybean [8]
  Phytotoxicity, Soybean: 2
Cotton [9]
  Phytotoxicity, Cotton: 0
Alopecurus myosuroides [10]; post-emergence, 125 g/ha
  Herbicidal efficacy, Alopecurus myosuroides: 1
Alopecurus myosuroides [10]; post-emergence, 250 g/ha
  Herbicidal efficacy, Alopecurus myosuroides: 4
Alopecurus myosuroides [10]; post-emergence, 500 g/ha
  Herbicidal efficacy, Alopecurus myosuroides: 5
Alopecurus myosuroides [10]; post-emergence, 1,000 g/ha
  Herbicidal efficacy, Alopecurus myosuroides: 9
[11]
  efficacy stronger than the References: about 8 times
Digitaria sanguinalis [12]; 62.5 g/ha
  Herbicidal efficacy, Digitaria sanguinalis: 10
Digitaria sanguinalis [12]; 125 g/ha
  Herbicidal efficacy, Digitaria sanguinalis: 10
Digitaria sanguinalis [12]; 250 g/ha
  Herbicidal efficacy, Digitaria sanguinalis: 10
Digitaria sanguinalis [12]; 500 g/ha
  Herbicidal efficacy, Digitaria sanguinalis: 10
Corn [13]
  Phytotoxicity, Corn: 5
Corn [14]
  Phytotoxicity, Corn: 3
Alopecurus myosuroides [15]; 62.5 g/ha
  Herbicidal efficacy, Alopecurus myosuroides: 5
Alopecurus myosuroides [15]; 125 g/ha
  Herbicidal efficacy, Alopecurus myosuroides: 6
Alopecurus myosuroides [15]; 250 g/ha
  Herbicidal efficacy, Alopecurus myosuroides: 7
Alopecurus myosuroides [15]; 500 g/ha
  Herbicidal efficacy, Alopecurus myosuroides: 8
Poa annua [16]; post-emergence, 125 g/ha
  Herbicidal efficacy, Poa annua: 6
Poa annua [16]; post-emergence, 250 g/ha
  Herbicidal efficacy, Poa annua: 7
Poa annua [16]; post-emergence, 500 g/ha
  Herbicidal efficacy, Poa annua: 8
Poa annua [16]; post-emergence, 1,000 g/ha
  Herbicidal efficacy, Poa annua: 10
Cotton [17]
  Phytotoxicity, Cotton: 1
Rice [18]
  Phytotoxicity, Rice: 0
Wheat [19]
  Phytotoxicity, Wheat: 0
